pIC50: −log10 of the molar value.

For the first assay, the system named is Plasmodium falciparum. Put plainly: Plasmodium falciparum in vitro [3H]-hypoxanthine parasite growth inhibition assay. As to conditions: Erythrocyte, P. falciparum asexual blood stage parasites in human erythrocytes, [3H]-hypoxanthine uptake, read-out: Act Class (IC50 activity level). The format is cell-based.
Take `CC(C)Nc1ncc2nc(Nc3ccc(C(F)(F)F)c(Cl)c3)n(C3CCNCC3)c2n1` [Cpd 91, N8-(3-chloro-4-(trifluoromethyl)phenyl)-N2-isopropyl-9-(piperidin-4-yl)-9H-purine-2,8-diamine]: the negative-log IC50 (pIC50) is 6.30 to 6.70.

With `FC(F)(F)c1ccc(Nc2nc3cnc(NC4CCCC4)nc3n2C2CCNCC2)cc1Cl` [Cpd 92, N8-(3-chloro-4-(trifluoromethyl)phenyl)-N2-cyclopentyl-9-(piperidin-4-yl)-9H-purine-2,8-diamine], the pIC50 is 6.30 to 6.70.

Turning to `CC1(Nc2ncc3nc(Nc4ccc(C(F)(F)F)c(Cl)c4)n(C4CCNCC4)c3n2)CC1` [Cpd 93, N8-(3-chloro-4-(trifluoromethyl)phenyl)-N2-(1-methylcyclopropyl)-9-(piperidin-4-yl)-9H-purine-2,8-diamine], the pIC50 is 6.30 to 6.70.

As to `CC1(Nc2ncc3nc(Nc4ccc(C(F)(F)F)c(Cl)c4)n(C4CCNCC4)c3n2)CCCC1` [Cpd 94, N8-(3-chloro-4-(trifluoromethyl)phenyl)-N2-(1-methylcyclopentyl)-9-(piperidin-4-yl)-9H-purine-2,8-diamine], the pIC50 was 6.70 to 7.00.

Consider `CC(C)(C)Nc1ncc2nc(Nc3cccc(C(F)(F)F)c3)n(C3CC4CNCC4C3)c2n1` (stereo not drawn) [Cpd 95, N2-tert-butyl-9-(octahydrocyclopenta[c]pyrrol-5-yl)-N8-(3-(trifluoromethyl)phenyl)-9H-purine-2,8-diamine], for which the negative logarithm of the IC50 (pIC50) is 6.30 to 6.70.

For the compound `FC(F)(F)c1cc(Nc2nc3cnc(NC4CC4)nc3n2C2CCNCC2)cc(C(F)(F)F)c1` [Cpd 96, N8-(3,5-bis(trifluoromethyl)phenyl)-N2-cyclopropyl-9-(piperidin-4-yl)-9H-purine-2,8-diamine], the negative-log IC50 (pIC50) was 6.70 to 7.00.

`CC(N)CCn1c(Nc2cc(Cl)cc(C(F)(F)F)c2)nc2cnc(NC3CCCC3)nc21` (stereo not drawn) [Cpd 111, 9-(3-aminobutyl)-N8-(3-chloro-5-(trifluoromethyl)phenyl)-N2-cyclopentyl-9H-purine-2,8-diamine]: the pIC50 was 6.70 to 7.00.

With `CC(N)CCn1c(Nc2cc(Cl)cc(C(F)(F)F)c2)nc2cnc(NC(C)(C)C)nc21` (stereo not drawn) [Cpd 112, 9-(3-aminobutyl)-N2-tert-butyl-N8-(3-chloro-5-(trifluoromethyl)phenyl)-9H-purine-2,8-diamine], the negative logarithm of the IC50 (pIC50) is 6.30 to 6.70.

Still in this assay, the particulars now being: Erythrocyte, read-out: Act Class (IC50 activity level).
With `CC(C)(C)Nc1ncc2nc(Nc3cc(Cl)cc(C(F)(F)F)c3)n(CC3CCNC3)c2n1` (stereo not drawn) [Cpd 98, N2-tert-butyl-N8-(3-chloro-5-(trifluoromethyl)phenyl)-9-(pyrrolidin-3-ylmethyl)-9H-purine-2,8-diamine], the pIC50 was 6.30 to 6.70.

The pIC50 is the negative decadic logarithm of the IC50, by convention in mol/L.

For the origin of these results see patent US11344554B2, “Animal and human anti-malarial agents” (Celgene Corporation, priority 2016, dated 2022).
